Test results taken from patent US11795481B2, “Processes for producing a fermentation product” (Novozymes A/S, priority 2017, dated 2023).

B1: PE001: variant of the Penicillium oxalicum glucoamylase of SEQ ID NO: 106 having a K79V substitution (protein, listed as Penicillium oxalicum)
chain: RPDPKGGNLTPFIHKEGERSLQGILDNLGGRGKKTPGTAAGLFIASPNTENPNYYYTWTRDSALTAKCLIDLFEDSRAVFPIDRKYLETGIRDYKSSQAILQSVSNPSGTLKDGSGLGEPKFEIDLNPFSGAWGRPQRDGPALRATAMITYANYLISHGQKSDVSQVMWPIIANDLAYVGQYWNNTGFDLWEEVDGSSFFTIAVQHRALVEGSQLAKKLGKSCDACDSQPPQILCFLQSFWNGKYITSNINTQASRSGIDLDSVLGSIHTFDPEAACDDATFQPCSARALANHKVYVDSFRSIYKINAGLAEGSAANVGRYPEDVYQGGNPWYLATLGASELLYDALYQWDRLGKLEVSETSLSFFKDFDATVKIGSYSRNSKTYKKLTQSIKSYADGFIQLVQQYTPSNGSLAEQYDRNTAAPLSANDLTWSFASFLTATQRRDAVVPPSWGAKSANKVPTTCSASPVVGTYKAPTATFSSKTKCVPAKDIVPITFYLIENTYYGENVFMSGNITALGNWDAKKGFPLTANLYTQDQNLWFASVEFIPAGTPFEYKYYKVEPNGDITWEKGPNRVFVAPTGCPVQPHSNDVWQF

How the values were obtained:
multi-strain LAB culture = assay: SSF of control mash with 1% w/w infected mash, AA13 candidates, HPLC of organic acids and ethanol (Example 3); format: cell-based; details: SSF 32° C. up to 24 hours, 20% DS; for % delta Ethanol / % delta Lactic Acid: vs No Treatment
Protocol: A control mash was prepared in-house with an industry relevant blend of AA369 and Protease Pfu using a Lab-O-Mat incubator for 2 hours at 85° C. and 36% DS to simulate typical industry conditions. The mash was then frozen prior to use in SSF. An infected mash was prepared by infecting the control mash with a multi-strain LAB culture grown in MRS. The bacteria in control mash was incubated overnight, and then frozen with 20% glycerol. For this experiment, 1% weight/weight of the infected mash was mixed into the control mash. This mimics an infection event at a large-scale ethanol facility. For SSF, all mash was prepared with 1000 ppm of urea to aid with yeast fermentation. All treatments were dosed with a baseline commercial glucoamylase GSA, while AA13 candidates were dosed at either 10 ug/g-DS or 50 ug/g-DS. SSF was performed at 5 g scale with 10 uL/g rehydrated Ethanol Red yeast at 32° C. for up to 24 hours at 20% DS. At the end of fermentation, samples were deactivated with 50 uL of 40% sulfuric acid and then centrifuged. The supernatant was filtered through a 0.2 μm filter and then measured for soluble carbohydrates and organic acids using an ion-exchange H-column on HPLC.

[1] = test system: mixed bacterial population previously isolated from an infected commercial corn mash; assay: Low Dry Solids fermentation of 1% infected liquefied corn mash with AA13 polypeptides, HPLC analysis (Example 2); format: cell-based; details: after 20 hrs of Low Dry Solids fermentation of corn mash; increasing doses; vs control
Protocol: Clean liquefied corn mash: Clean corn mash was prepared in our laboratories under typical liquefaction conditions using a blend of AA369 and Protease Pfu. […] Substrate is stored frozen and thawed before use.
Infected liquefied corn mash: Clean corn mash was inoculated with a mixed bacterial population previously isolated from an infected commercial corn mash. The infected mash was incubated with the inoculant for up to 24 hours at approximately 32° C. […] Substrate is frozen in 20% glycerol solution and then thawed before use.
1% Infected liquefied mash: Per every 100 g of “clean” mash, 1 g of infected mash is added and mixed thoroughly.
Low Dry Solids fermentation. 1% Infected Mash was diluted to 20% dry solids. 200 ppm target urea was added as an exogenous nitrogen source for yeast. Commercial glucoamylase GSA, was used at a dose of 0.6 AGU/g-dry solids. Yeast was pitched at a rate of 0.25 g/L. Experimental enzymes were dosed between 2 ppm and 100 ppm. Dosage were against dry solids.
Positive control: Penicillin was used at 25 ppm.
Negative control: No treatment was added.
Yeast, enzymes, and any additional tap water was added at approximately the same time to start fermentation. […]
Fermentations were sampled at various time points to examine soluble carbohydrates and organic acids. […] Analytes were quantified against internal standards. […]
Data was analyzed using SAS JMP statistical software.

[2] = relative to the parent Penicillium oxalicum glucoamylase; cited from earlier work

| Molecule | average Ethanol (multi-strain LAB culture; AA13 dose 10 ug/g-DS) [g/L] | average Lactic Acid (multi-strain LAB culture; AA13 dose 10 ug/g-DS) [g/L] | % delta Ethanol (multi-strain LAB culture; AA13 dose 10 ug/g-DS) [%] | % delta Lactic Acid (multi-strain LAB culture; AA13 dose 10 ug/g-DS) [%] | average Ethanol (multi-strain LAB culture; AA13 dose 50 ug/g-DS) [g/L] | average Lactic Acid (multi-strain LAB culture; AA13 dose 50 ug/g-DS) [g/L] | % delta Ethanol (multi-strain LAB culture; AA13 dose 50 ug/g-DS) [%] | % delta Lactic Acid (multi-strain LAB culture; AA13 dose 50 ug/g-DS) [%] | lactic acid titers, dose response (FIG. 5) [1] | sensitivity to protease degradation [2] |
| --- | --- | --- | --- | --- | --- | --- | --- | --- | --- | --- |
| Aspergillus terreus: AA13 polypeptide from Aspergillus terreus having the amino acid sequence of SEQ ID NO: 119 | 77.1 | 3.4 | −0.7 | 1.3 | 78.0 | 3.4 | 0.4 | 1.3 | reduced lactic acid titers compared to the control |  |
| B1 |  |  |  |  |  |  |  |  |  | reduced sensitivity to protease degradation relative to the parent |
